From US8835644B2, “Broad spectrum benzothiophene-nitrothiazolide and other antimicrobials” (University of Virginia Patent Foundation, priority 2009, dated 2014)
In brackets after ≈: the same amount, converted by molar mass. Like-named read-outs stand apart in the source and are kept apart here.

Experiments:
[1] = system: EAEC 042 (AAF/II fimbriae); test: Hemagglutination of sheep erythrocytes, EAEC 042; type: cell-based, Escherichia coli; conditions: EAEC 042 grown in MinA-G with 20 μg/ml NTZ; further: key: +++ = strong hemagglutination reaction; + weak; − no hemagglutination
Description: HA assays were performed in 96-well microplates as described in (1). Bacteria grown over night without shaking ([…]) were suspended in PBS and diluted to OD660 of […] was mixed with an equal volume of 3% (vol/vol) sheep erythrocyte suspension containing 1% mannose, except when type I fimbriae producing strains were assayed. In the latter, bacteria were grown statically in LB medium (with and without NTZ) for 48 h and HA was determined with guinea pig erythrocytes. HA reactions were incubated at 4° C. for […] HA was determined visually against controls receiving no NTZ. All assays were prepared in triplicate and repeated twice.

[2] = system: aggR and aafA transcripts of EAEC 042; test: qRT-PCR of aggR, aafA and rpoS; type: cell-based, Escherichia coli; conditions: EAEC 042, MinA-G
Description: EAEC 042 was grown overnight in MinA-G medium and then diluted to a starting OD600 of 0.05 in three 50 ml MinA-G cultures with 0, 10, and 25 μg/ml NTZ. Bacterial cells were grown with shaking until the cultures reached an OD600 of ˜0.4 and were harvested by centrifugation at 4° C. The pellets were resuspended in 200 μl TE buffer, transferred to polystyrene round bottom 14 ml tubes, and total RNA was extracted by the TES-hot phenol method as previously described (15). The RNA was re-precipitated and washed two times with 500 μl 70% DEPC ethanol to remove any remaining salts. The pellets were dried at 37° C. and suspended in 100 μl DEPC water. RNA concentration was determined with a Nanoprop ND-1000 UV-Vis Spectrophotometer. RNA yields were typically in the 1.6-3.2 μg/μl range. Residual DNA was removed by treatment with TURBO DNase and stored at −80° C. (15).
Primers for real-time qRT-PCR were designed to yield approximately 150 base pair amplicons for the virulence genes aggR and aafA and for the stringent response gene rpoS, which served as an internal control. SuperScript™ II Reverse Transcriptase (Invitrogen) was used to synthesize first-strand cDNA from 1 μg purified RNA with 100 ng random primers (Invitrogen). RNA, random primers, and dNTPs (0.5 mM final concentration) were mixed, heated for 65° C. for 5 min, centrifuged briefly, and quick chilled on ice. […]

[3] = system: E. coli 042 aggR-lacZ; test: Reporter gene fusions aggR-lacZ, aafA-phoA; type: cell-based, Escherichia coli; conditions: β-galactosidase, static growth, 12 μg/ml NTZ
Description: Reporter gene fusions were provided by James Nataro (University of Maryland) and included E. coli 042 aggR-lacZ and E. coli 042 aafA-phoA (3.4.14 and 2.94) (3) and an undefined promoterless lacZ control strain of E. coli 042. Strains were grown without shaking in MinA-G medium supplemented with 0, 12 or 25 μg/ml of NTZ for 16 h at 37° C. β-Galactosidase activity was determined spectrophotometrically and reported in Miller units (24). Alkaline phosphatase activity was also determined spectrophotometrically using p-nitrophenol as previously described (23). All assays were performed in triplicate in three independent experiments and the mean and standard deviation are reported.

[4] = system: C. difficile; test: MIC by agar dilution, C. difficile; type: cell-based, Clostridium difficile
Description: A standard broth dilution protocol was used in 96 well microplates containing a standard dilution of the microorganism to be tested in 100 microliters of the appropriate medium. Appropriate medium: E. coli, LB medium; Staphylococcus strains, Trypticase Soy; and for H. pylori and C. jejuni, Brain Heart Infusion. The compounds to be tested were set at 32 μg/ml in 200 microliters in well one and then serially diluted to provide a range from 32 to 0.06. The wells were scored visually at 24 h. The well where there was no growth was recorded as the MIC. […]
Representative compounds of the invention were tested in a series of assays against a series of organisms as described above. […] The organisms tested include, C. difficile, H. pylori, C. jejuni, MRSA, S. epidermidis, and E. coli. S. epidermidis and E. coli were tested in the plank and biofilm assay. A disk diffusion assay was also used for C. difficile. Direct PFOR enzyme assays were also performed. All analogues and derivatives were not tested on every organism in every type of assay (the “-” in each table means that it was not tested).

[5] = system: EAEC strains 042 and 17-2; test: Growth and MIC of E. coli / EAEC strains in LB and MinA-G medium; type: cell-based; conditions: Escherichia coli; for MIC: static
Description: EAEC strains were grown overnight in MinA-G medium at 37° C. with shaking and used to inoculate fresh MinA-G medium containing a range of NTZ concentrations (0, 5, 10, 15, 20, and 25 μg/ml) to a starting OD600 of 0.1. Growth was recorded as the absorbance at 600 nm at 30-minute intervals over a period of eight hours. […] Motility was assessed in LB soft agar (0.3% agar) containing 0 to 25 μg/ml of NTZ. The diameter of outward spreading was measured daily and inhibition computed as percent of control.

## CC(=O)Oc1ccccc1C(=O)Nc1ncc([N+](=O)[O-])s1 [Nitazoxanide, 2-(acetyloxy)-N-(5-nitro-2-thiazolyl)benzamide, reference compound]
[1]
  HA (sheep erythrocytes), bacterial OD660 0.5: −
  HA (sheep erythrocytes), bacterial OD660 1.0: −
  HA (sheep erythrocytes), bacterial OD660 1.5: +
[2]
  Increase in aggR transcript levels over untreated controls: ~10 fold
  aafA expression: unaffected
[3]
  Increase in aggR:lacZ expression over untreated controls: ~2.5 fold
[4]; 2-amino-3,5-dinitrothiophene analogues table, read-out: MIC C. difficile
  MIC: 52.1 µM (≈ 16 µg/mL)
[4]; Clostridioides difficile, Furan analogues table, read-out: MIC C. difficile
  MIC: 52.1 µM (≈ 16 µg/mL)
[4]; Clostridioides difficile, agar dilution, anaerobic, Wilkins Chalgrin agar, read-out: MIC (μM) C. difficile
  MIC: 52.1 µM (≈ 16 µg/mL)
[4]; Thiophene analogues table, read-out: MIC C. difficile
  MIC: 52.1 µM (≈ 16 µg/mL)
[5]; 042AND172, read-out: Concentration for 50% inhibition of aerobic growth, EAEC 17-2, MinA-G, estimated
  IC50: 20 to 25 µg/mL
[5]; 042AND172, read-out: Concentration for 50% inhibition of aerobic growth, EAEC 042, MinA-G, estimated
  IC50: 15 to 20 µg/mL
[5]; 042AND172, E. coli strains, rich LB medium, read-out: MIC in LB medium
  MIC: > 64 µg/mL
[5]; 042AND172, EAEC strains, static conditions
  MIC50: ~20 µg/mL
[5]; 042AND172, minimal medium with glucose, read-out: MIC in MinA-G medium
  MIC: ~32 µg/mL
